From article PMC12992618 (Nature Communications, 2026)

Columns and labels:
[1] = target: T1, CRAF (Homo sapiens, UniProt P04049); assay: CRAF-IP kinase assay after […] h cell treatment; format: cell-based
T1 construct: gene RAF1; endogenous CRAF immunoprecipitated from NCI-H1666 and NCI-H2405 cells

[2] = target: T2, BRAF (Homo sapiens, UniProt P15056, V600E); assay: BRAF-IP kinase assay after […] h cell treatment; format: cell-based
T2 construct: endogenous BRAF immunoprecipitated from HCC364 cells
T2 sequence (P15056 2-766 V600E): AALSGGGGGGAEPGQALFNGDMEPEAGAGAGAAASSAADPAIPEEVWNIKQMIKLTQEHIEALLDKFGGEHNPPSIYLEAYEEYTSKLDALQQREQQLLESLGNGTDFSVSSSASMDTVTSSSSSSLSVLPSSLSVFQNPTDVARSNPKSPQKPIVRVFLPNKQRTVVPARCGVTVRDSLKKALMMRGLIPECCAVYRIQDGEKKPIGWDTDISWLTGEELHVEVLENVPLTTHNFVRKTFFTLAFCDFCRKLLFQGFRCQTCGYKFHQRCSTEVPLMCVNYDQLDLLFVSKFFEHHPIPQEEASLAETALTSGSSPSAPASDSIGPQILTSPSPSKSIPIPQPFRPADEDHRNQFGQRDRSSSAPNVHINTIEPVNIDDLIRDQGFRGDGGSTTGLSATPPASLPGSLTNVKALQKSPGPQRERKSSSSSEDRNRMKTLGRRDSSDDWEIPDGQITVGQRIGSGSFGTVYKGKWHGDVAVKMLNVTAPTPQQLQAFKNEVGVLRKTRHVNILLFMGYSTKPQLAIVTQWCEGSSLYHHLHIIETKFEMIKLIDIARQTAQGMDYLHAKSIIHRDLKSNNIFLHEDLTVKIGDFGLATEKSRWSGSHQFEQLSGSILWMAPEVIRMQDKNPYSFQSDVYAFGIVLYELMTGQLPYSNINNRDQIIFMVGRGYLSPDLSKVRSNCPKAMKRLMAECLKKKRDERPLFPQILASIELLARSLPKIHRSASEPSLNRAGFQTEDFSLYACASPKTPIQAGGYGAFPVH

T1 sequence (P04049 whole entry): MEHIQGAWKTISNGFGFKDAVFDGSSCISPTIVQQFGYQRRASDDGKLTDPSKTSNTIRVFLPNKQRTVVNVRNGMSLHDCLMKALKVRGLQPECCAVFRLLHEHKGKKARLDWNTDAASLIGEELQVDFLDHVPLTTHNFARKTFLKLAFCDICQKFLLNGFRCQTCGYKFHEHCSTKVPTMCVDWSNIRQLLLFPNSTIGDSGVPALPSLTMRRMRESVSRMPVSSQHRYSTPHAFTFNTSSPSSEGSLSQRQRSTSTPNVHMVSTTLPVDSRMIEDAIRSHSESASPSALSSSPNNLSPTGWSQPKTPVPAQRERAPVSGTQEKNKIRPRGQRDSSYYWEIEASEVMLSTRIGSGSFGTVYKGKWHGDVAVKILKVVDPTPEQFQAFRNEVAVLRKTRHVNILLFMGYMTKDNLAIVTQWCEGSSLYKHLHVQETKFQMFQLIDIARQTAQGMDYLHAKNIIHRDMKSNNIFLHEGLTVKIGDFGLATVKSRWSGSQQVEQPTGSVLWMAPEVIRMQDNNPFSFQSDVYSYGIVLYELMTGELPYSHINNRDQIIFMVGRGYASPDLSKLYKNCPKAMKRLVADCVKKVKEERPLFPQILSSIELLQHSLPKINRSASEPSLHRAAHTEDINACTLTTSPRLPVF

Cc1ccc2c(Nc3cccc(Cl)c3F)nccc2c1NC(=O)c1csc2c(N)ncnc12 [belvarafenib]
CRAF-IP kinase assay after 4 h cell treatment [1]: baseline CRAF kinase activity was strongly detected in NCI-H1666 cells and was significantly inhibited by exarafenib and belvarafenib | BRAF-IP kinase assay after 4 h cell treatment [2]: Exarafenib and belvarafenib exhibit potent inhibition of BRAF kinase activity in Class I and II BRAF mutations
